According to patent US20020137929A1, “1 - (3-heterocyclylphenyl) isothiourea, -isourea, -guanidine and -amidine herbicidal agents” (Intellectual Property Department, BASF Aktiengesellschaft, priority 1998, published 2002):

How the values were obtained:
[1] = system: IPOHE (Morningglory, Ivyleaf); assay: Preemergence herbicidal evaluation; type: in vivo, Ipomoea hederacea; details: rated 4-5 weeks after treatment
How it was run: (§1)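 Scores (0–9) reflect visual comparison with control plants for stand, vigor, malformation, size and chlorosis. Compound was applied to the soil after sowing, before emergence, as an aqueous acetone spray (about 0.0156–0.500 kg/ha), and cups were kept in a greenhouse for 4–5 weeks.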

[2] = system: IPOHE (Morningglory, Ivyleaf); assay: Postemergence herbicidal evaluation; type: in vivo, Ipomoea hederacea; details: postemergence
How it was run: (§2)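 Visual 0-9 injury score (stand, vigor, malformation, size, chlorosis, appearance vs untreated) taken four to five weeks post-spray, averaged across repeat tests. Test plants about two weeks old; foliar spray of acetone/water (1:1) with 0.5% surfactant delivering ~0.0156-0.500 kg active/ha.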

[3] = system: ECHORC (Watergrass (Calif.)); assay: Postemergence weed control under flooded paddy conditions; type: in vivo, Echinochloa oryzoides; details: postemergence weeds, 3-4 weeks after treatment
How it was run: (§3)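 With weeds 3 to 5 cm tall and rice at the 1.5 to 2.5 leaf stage, containers were flooded and water held 1.5 to 3 cm above soil. Compounds in 50/50 v/v aqueous/acetone went into the flood water at about 0.0313 to 0.500 kg/ha a.i. Effects were visually rated 0–9 against controls after three to four weeks in the greenhouse.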

[4] = system: CYPIR (Rice Flatsedge); assay: Preemergence weed control under flooded paddy conditions; type: in vivo, Cyperus iria; details: rated 3-4 weeks after treatment
How it was run: (§4)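 Seeds or propagules sown in top 0.5 cm of silt loam soil, flooded 1.5 to 3 cm above surface throughout. Compound in 50/50 v/v aqueous/acetone pipetted into flood water at about 0.0313 to 0.500 kg/ha. Visual 0-9 rating versus control after three to four weeks in greenhouse.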

[5] = system: ECHCG (Barnyardgrass); assay: Preemergence herbicidal evaluation; type: in vivo, Echinochloa crus-galli; details: rated 4-5 weeks after treatment
How it was run: as §1

[6] = system: SETVI (Foxtail, Green); assay: Postemergence herbicidal evaluation; type: in vivo, Setaria viridis; details: postemergence
How it was run: as §2

[7] = system: ABUTH (Velvetleaf); assay: Preemergence herbicidal evaluation; type: in vivo, Abutilon theophrasti; details: rated 4-5 weeks after treatment
How it was run: as §1

[8] = system: ECHORC (Watergrass (Calif.)); assay: Preemergence weed control under flooded paddy conditions; type: in vivo, Echinochloa oryzoides; details: rated 3-4 weeks after treatment
How it was run: as §4

[9] = system: SAGPY (Arrowhead (Pygmaea)); assay: Postemergence weed control under flooded paddy conditions; type: in vivo, Sagittaria pygmaea; details: postemergence weeds, 3-4 weeks after treatment
How it was run: as §3

[10] = system: TRZAWR (Wheat, Winter, cv Riband); assay: Postemergence herbicidal evaluation; type: in vivo, Triticum aestivum; details: postemergence
How it was run: as §2

[11] = system: ZEAMX (Corn, Field); assay: Preemergence herbicidal evaluation; type: in vivo, Zea mays; details: rated 4-5 weeks after treatment
How it was run: as §1

[12] = system: MOOVA (Monochoria); assay: Preemergence weed control under flooded paddy conditions; type: in vivo, Monochoria vaginalis; details: rated 3-4 weeks after treatment
How it was run: as §4

[13] = system: SETVI (Foxtail, Green); assay: Preemergence herbicidal evaluation; type: in vivo, Setaria viridis; details: rated 4-5 weeks after treatment
How it was run: as §1

[14] = system: GALAP (Galium); assay: Postemergence herbicidal evaluation; type: in vivo, Galium aparine; details: postemergence
How it was run: as §2

CCOC(=O)CN1C(=O)C(CC)SC1=Nc1cc(-n2c(=O)cc(C(F)(F)F)n(C)c2=O)c(F)cc1Cl (stereo not shown) [Compound 13, Ethyl 2-{{2-chloro-5-[3,6-dihydro-3-methyl-2,6-dioxo-4-(trifluoromethyl)-1(2H)-pyrimidinyl]-4-fluorophenyl}imino}-5-ethyl-4-oxo-3-thiazolidineacetate]
IPOHE preemergence herbicidal rating ([1]; rate 0.0156 kg/ha): 2.5 | IPOHE preemergence herbicidal rating ([1]; rate 0.0313 kg/ha): 3.5 | IPOHE preemergence herbicidal rating ([1]; rate 0.0625 kg/ha): 9.0 | IPOHE preemergence herbicidal rating ([1]; rate 0.1250 kg/ha): 8.0 | IPOHE preemergence herbicidal rating ([1]; rate 0.2500 kg/ha): 9.0 | IPOHE herbicidal rating ([2]; rate 0.0156 kg/ha): 9.0 | IPOHE herbicidal rating ([2]; rate 0.0313 kg/ha): 9.0 | IPOHE herbicidal rating ([2]; rate 0.0625 kg/ha): 9.0 | IPOHE herbicidal rating ([2]; rate 0.1250 kg/ha): 9.0 | Herbicidal rating ECHORC ([3]; rate 0.0313 kg/ha): 5.5 | Herbicidal rating ECHORC ([3]; rate 0.0625 kg/ha): 7.0 | Herbicidal rating ECHORC ([3]; rate 0.1250 kg/ha): 8.0 | Herbicidal rating ECHORC ([3]; rate 0.2500 kg/ha): 9.0 | Herbicidal rating CYPIR ([4]; 0.0156 kg/ha): 0.0 | Herbicidal rating CYPIR ([4]; 0.0313 kg/ha): 0.0 | Herbicidal rating CYPIR ([4]; 0.0625 kg/ha): 0.0 | Herbicidal rating CYPIR ([4]; 0.1250 kg/ha): 0.5 | Herbicidal rating CYPIR ([4]; 0.2500 kg/ha): 1.0 | ECHCG preemergence herbicidal rating ([5]; rate 0.0156 kg/ha): 0.0 | ECHCG preemergence herbicidal rating ([5]; rate 0.0313 kg/ha): 0.0 | ECHCG preemergence herbicidal rating ([5]; rate 0.0625 kg/ha): 1.0 | ECHCG preemergence herbicidal rating ([5]; rate 0.1250 kg/ha): 7.0 | ECHCG preemergence herbicidal rating ([5]; rate 0.2500 kg/ha): 8.0 | SETVI herbicidal rating ([6]; rate 0.0156 kg/ha): 0.0 | SETVI herbicidal rating ([6]; rate 0.0313 kg/ha): 4.0 | SETVI herbicidal rating ([6]; rate 0.0625 kg/ha): 4.0 | SETVI herbicidal rating ([6]; rate 0.1250 kg/ha): 9.0 | ABUTH preemergence herbicidal rating ([7]; rate 0.0156 kg/ha): 6.0 | ABUTH preemergence herbicidal rating ([7]; rate 0.0313 kg/ha): 9.0 | ABUTH preemergence herbicidal rating ([7]; rate 0.0625 kg/ha): 9.0 | ABUTH preemergence herbicidal rating ([7]; rate 0.1250 kg/ha): 9.0 | ABUTH preemergence herbicidal rating ([7]; rate 0.2500 kg/ha): 9.0 | Herbicidal rating ECHORC ([8]; 0.0156 kg/ha): 3.5 | Herbicidal rating ECHORC ([8]; 0.0313 kg/ha): 5.5 | Herbicidal rating ECHORC ([8]; 0.0625 kg/ha): 7.0 | Herbicidal rating ECHORC ([8]; 0.1250 kg/ha): 8.0 | Herbicidal rating ECHORC ([8]; 0.2500 kg/ha): 9.0 | Herbicidal rating SAGPY ([9]; rate 0.0313 kg/ha): 0.0 | Herbicidal rating SAGPY ([9]; rate 0.0625 kg/ha): 0.0 | Herbicidal rating SAGPY ([9]; rate 0.1250 kg/ha): 0.0 | Herbicidal rating SAGPY ([9]; rate 0.2500 kg/ha): 0.0 | TRZAWR herbicidal rating ([10]; rate 0.0156 kg/ha): 4.5 | TRZAWR herbicidal rating ([10]; rate 0.0313 kg/ha): 4.5 | TRZAWR herbicidal rating ([10]; rate 0.0625 kg/ha): 6.0 | TRZAWR herbicidal rating ([10]; rate 0.1250 kg/ha): 6.0 | ZEAMX preemergence herbicidal rating ([11]; rate 0.0156 kg/ha): 0.0 | ZEAMX preemergence herbicidal rating ([11]; rate 0.0313 kg/ha): 2.0 | ZEAMX preemergence herbicidal rating ([11]; rate 0.0625 kg/ha): 4.0 | ZEAMX preemergence herbicidal rating ([11]; rate 0.1250 kg/ha): 5.0 | ZEAMX preemergence herbicidal rating ([11]; rate 0.2500 kg/ha): 7.0 | Herbicidal rating MOOVA ([12]; 0.0156 kg/ha): 7.5 | Herbicidal rating MOOVA ([12]; 0.0313 kg/ha): 9.0 | Herbicidal rating MOOVA ([12]; 0.0625 kg/ha): 9.0 | Herbicidal rating MOOVA ([12]; 0.1250 kg/ha): 9.0 | Herbicidal rating MOOVA ([12]; 0.2500 kg/ha): 9.0 | SETVI preemergence herbicidal rating ([13]; rate 0.0156 kg/ha): 2.5 | SETVI preemergence herbicidal rating ([13]; rate 0.0313 kg/ha): 4.5 | SETVI preemergence herbicidal rating ([13]; rate 0.0625 kg/ha): 9.0 | SETVI preemergence herbicidal rating ([13]; rate 0.1250 kg/ha): 9.0 | SETVI preemergence herbicidal rating ([13]; rate 0.2500 kg/ha): 9.0 | GALAP herbicidal rating ([14]; rate 0.0156 kg/ha): 3.0 | GALAP herbicidal rating ([14]; rate 0.0313 kg/ha): 3.0 | GALAP herbicidal rating ([14]; rate 0.0625 kg/ha): 5.0 | GALAP herbicidal rating ([14]; rate 0.1250 kg/ha): 5.0
